Experimental data reported in patent US20090176732A1, “PROTECTED NUCLEOTIDE ANALOGS” (Alios BioPharma Inc., priority 2007, published 2009).

How the values were obtained:
AVA5 cell line = conditions: concentration giving 2-fold depression of neutral red dye uptake vs untreated cultures; daily treatment for three days, assessed at 72 hours; ± S.D.
Experimental: Compounds were added to dividing cultures daily for three days. […] Intracellular HCV RNA levels and cytotoxicity were assessed 72 hours after treatment.
Quadruplicate cultures for HCV RNA levels and cytoxicity (on 96-well plates) were used. A total of 12 untreated control cultures, and triplicate cultures treated with α-interferon (concentrations of: 10 IU/mL, 3.3 IU/mL, 1.1 IU/mL and 0.37 IU/mL) and 2′C-Me-C (concentrations of: 30 μM, 10 μM, 3.3 μM and 1.1 μM) served as assay controls.
HCV RNA levels in the treated cultures are expressed as a percentage of the mean levels of RNA detected in untreated cultures. The absorbance of the internalized dye at […] (A510) was used for quantitative analysis.
Compounds were dissolved in 100% tissue culture grade DMSO (Sigma, Inc.) at 10 mM. Aliquots of test compounds sufficient for one daily treatment were made in individual tubes and all material was stored at −20° C. For the test, the compounds were suspended into culture medium at room temperature, and immediately added to the cell cultures. Compounds were analyzed separately in two groups with separate assay controls. The concentrations of the test compounds were run at concentrations of 10 μM, 3.3 μM, 1.1 μM and 0.37 μM.

[1] = system: HCV RNA-replicating cell line, AVA5 (genotype 1b, subgenomic replicon); assay: HCV replicon assay, intracellular HCV RNA levels by blot hybridization; format: cell-based, HCV genotype 1b; conditions: for EC50: concentration giving 2-fold depression of HCV RNA vs untreated cultures; for EC50 / EC90: normalized to β-actin RNA, daily treatment for three days, assessed at 72 hours, ± S.D.; for EC90: concentration giving 10-fold depression of HCV RNA vs untreated cultures; for Antiviral activity (in words): summary of the Table 1 results in the text
Experimental: Antiviral activity of the test compounds was assessed (Okuse, et al., Antivir. Res. (2005) 65:23) in the stably HCV RNA-replicating cell line, AVA5 (genotype 1b, subgenomic replicon, Blight, et al., Sci. (2000) 290:1972). Compounds were added to dividing cultures daily for three days. […] Intracellular HCV RNA levels and cytotoxicity were assessed 72 hours after treatment.
Intracellular HCV RNA levels were measured using a conventional blot hybridization method, in which HCV RNA levels are normalized to the levels of β-actin RNA in each individual culture (Okuse, et al., Antivir. Res. (2005) 65:23). Cytotoxicity was measured using an established neutral red dye uptake assay (Korba and Gerin, Antivir. Res. (1992) 19:55; Okuse, et al., Antivir. Res. (2005) 65:23). HCV RNA levels in the treated cultures are expressed as a percentage of the mean levels of RNA detected in untreated cultures. The absorbance of the internalized dye at 510 nM (A510) was used for quantitative analysis.
Values presented (±standard deviations [S.D.]) were calculated by linear regression analysis using data combined from all treated cultures. S.D. was calculated using the standard error of regression generated from the linear regression analyses (QuattroPro™).

SMILES	CC50 (AVA5 cell line) [µM]	EC50 [1] [µM]	EC90 [1] [µM]	Antiviral activity (in words) [1]
CCOC(=O)C(COC(C)=O)(COP(=O)(OC[C@H]1O[C@@H](n2cnc(C(N)=O)n2)[C@H](O)[C@@H]1O)OCC(COC(C)=O)(C(=O)OCC)C(=O)OCC)C(=O)OCC [Compound 14, Ribavirin 5′-bis[3-acetyloxy-2,2-bis(ethoxycarbonyl)propyl]phosphate]	9.7 ± 0.2	1.6 ± 0.2	4.4 ± 0.4	markedly more active compared to compound 12
COC(=O)[C@H](C)NP(=O)(OC[C@H]1O[C@@H](n2cnc(C(N)=O)n2)[C@H](O)[C@@H]1O)Oc1ccccc1 (some centres unmarked) [Compound 12]	> 100	> 100	> 100	inactive
